Data published in ChEMBL document CHEMBL3352740, “Pyrrolopyrimidine Analogues as MKNK Inhibitors” (ACS Med Chem Lett, 2015).

Molecular target: MAP kinase-interacting serine/threonine-protein kinase 1 (Homo sapiens, UniProt Q9BUB5)
Assay: Inhibition of human full-length MKNK1 using biotin-Ahx-IKKRKLTRRKSLKG substrate by TR-FRET-based high ATP assay

Chain of MAP kinase-interacting serine/threonine-protein kinase 1 (Q9BUB5 whole entry): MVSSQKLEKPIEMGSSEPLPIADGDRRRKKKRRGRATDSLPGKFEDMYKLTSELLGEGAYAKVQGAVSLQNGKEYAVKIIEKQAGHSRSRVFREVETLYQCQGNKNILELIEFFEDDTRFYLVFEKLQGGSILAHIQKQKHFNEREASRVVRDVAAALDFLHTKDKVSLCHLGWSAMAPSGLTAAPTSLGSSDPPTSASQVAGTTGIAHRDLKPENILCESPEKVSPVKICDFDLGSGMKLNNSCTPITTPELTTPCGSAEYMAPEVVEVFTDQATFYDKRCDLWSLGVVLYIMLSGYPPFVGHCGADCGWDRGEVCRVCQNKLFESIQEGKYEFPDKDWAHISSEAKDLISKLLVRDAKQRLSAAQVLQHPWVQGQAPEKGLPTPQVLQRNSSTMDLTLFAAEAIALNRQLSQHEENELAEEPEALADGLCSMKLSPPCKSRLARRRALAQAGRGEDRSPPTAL

Structure (SMILES) | IC50
COc1cc(Cl)c(Cl)cc1Nc1ncnc2[nH]c3c(c12)CC(C(=O)NC1CC1)CC3 (stereo unspecified) | 6 nM
CC(C)Oc1cc2[nH]ncc2cc1Nc1ncnc2[nH]c3c(c12)CCCC3 | 5 nM
CCNC(=O)C1CCc2[nH]c3ncnc(Nc4cc5cn[nH]c5cc4OC)c3c2C1 (stereo unspecified) | 6 nM
COc1cc2[nH]ncc2cc1Nc1ncnc2[nH]c3c(c12)CC(C(=O)NCc1ccccc1)CC3 (stereo unspecified) | 1 nM
O=C1OCCOc2cc(F)ccc2Nc2ncnc3[nH]c4c(c23)CC1CC4 (stereo unspecified) | 3540 nM
CC(C)Oc1cc2[nH]ncc2cc1Nc1ncnc2[nH]c3c(c12)CC(C(=O)NCCCS(C)(=O)=O)CC3 (stereo unspecified) | 1 nM
